According to paper PMC7385626 (Scientific Reports, 2020):

Tests used:
St. pyogenez ATCC176 = assay: Serial microdilution assay (MIC); type: cell-based, Steptococcus Pyogerez
Procedure: (§1) […]. […] Four types of gram-positive bacterial strains (St. pyogenez, B. subtilis, B. cereus, S. aureus) and five types of the gram-negative (S. enteridis, E. aerogenes, P. aeruginosa, E. coli, and S. gallinarum) were sensitive to 4 and 1. […]. The minimal inhibitory concentration value was studied for the microorganism cells, which evaluated to sensitive the substances and they tested in the disc-diffusion method. Inoculate of microorganism was prepared utilizing 12 h suspensions and broth cultures were adjusted to 0.5 McFarland turbidity standard. Each substance was dissolved in 10% dimethyl sulfoxide which diluted to the highest concentration (1000 µg/mL) for testing. […]. Also, prepared suspensions for standard microorganisms were added to each dilution in a 1:1 ratio. Growth act of microorganism cells was determined visually after incubation at 36 °C. The minimum concentration was no visible growth which was taken as the MIC.

[1] = tested on: bacterial strains (four gram-positive, five gram-negative); assay: Serial microdilution assay (MIC), range over the bacterial strains; type: cell-based
Procedure: as §1

[2] = tested on: bacterial strains (four gram-positive, five gram-negative); assay: Disc diffusion assay, range over the bacterial strains; type: cell-based
Procedure: […]. […] Four types of gram-positive bacterial strains (St. pyogenez, B. subtilis, B. cereus, S. aureus) and five types of the gram-negative (S. enteridis, E. aerogenes, P. aeruginosa, E. coli, and S. gallinarum) were sensitive to 4 and 1. […]. In this study, 10 microbial cultures of this part, belonging to ten types of bacterial were used. The culture was grown in Mueller–Hinton Broth (Merck) for all the bacterial strains at 36 °C. Antimicrobial test was carried out by using disc-diffusion assay utilizing 100 µL of suspension with 10^8 CFU/mL of bacteria and 10^6 CFU/mL of yeast spread on Nutrient Agar and Potato Dextrose Agar, respectively. Also, the blank disc (Oxoid = 6 mm in diameter) was impregnated with 20 µL of each substance (105 µg/disc) and placed on the inoculated agar. Negative controls ([…]) were prepared using the same solvent (water) employed to dissolve each substance. […]. The inoculated plate was incubated at 36 °C for clinical bacterial strains. Antimicrobial activities were evaluated by obtaining the zone of inhibitory effect against the test organisms.

S. aureus ATCC29213 = assay: Serial microdilution assay (MIC); type: cell-based, Staphylococcus aureus
Procedure: as §1

B. subtilis ATCC6633 = assay: Serial microdilution assay (MIC); type: cell-based, Bacillus Subtilis
Procedure: as §1

S. gallinarum = assay: Serial microdilution assay (MIC); type: cell-based, Salmonella Gallinarum
Procedure: as §1

P. aeruginosa ATCC9027 = assay: Serial microdilution assay (MIC); type: cell-based, Pseudomonas Aureginosa
Procedure: as §1

E. coli 111 = assay: Serial microdilution assay (MIC); type: cell-based, Escherichia coli
Procedure: as §1

B. cereus DSM 4312 = assay: Serial microdilution assay (MIC); type: cell-based, Bacillus Cereus
Procedure: as §1

Substance: [Cd(N-bishydeten)]4[Ag(CN)2]8[Ag(CN)]2 [Complex 4]
- Minimum-inhibitory concentrations (MIC), St. pyogenez ATCC176 (St. pyogenez ATCC176): 31.25 ± 9.02 µg/mL
- MIC, joint range for 4 and 1 over the strains [1]: 15.62 to 125 µg/mL
- MIC, range over the bacterial strains [1]: 31.25 to 125 µg/mL
- inhibition zones, range over the bacterial strains [2]: 25–37 mm
- Minimum-inhibitory concentrations (MIC), S. aureus ATCC29213 (S. aureus ATCC29213): 62.50 ± 0.0 µg/mL
- Minimum-inhibitory concentrations (MIC), B. subtilis ATCC6633 (B. subtilis ATCC6633): 31.25 ± 0.0 µg/mL
- Minimum-inhibitory concentrations (MIC), S. gallinarum (S. gallinarum): 125 ± 0.0 µg/mL
- Minimum-inhibitory concentrations (MIC), P. aeruginosa ATCC9027 (P. aeruginosa ATCC9027): 62.50 ± 0.0 µg/mL
- Minimum-inhibitory concentrations (MIC), E. coli 111 (E. coli 111): 31.25 ± 0.0 µg/mL
- Minimum-inhibitory concentrations (MIC), B. cereus DSM 4312 (B. cereus DSM 4312): 62.50 ± 18.04 µg/mL
